Results: patent publication US20060111778A1, “Methods of promoting healing of cartilage defects and method of causing stem cells to differentiate by the articular chondrocyte pathway” (priority 2004, published 2006)

System: bone marrow-derived stem cells (MSCs)
Assay: culture of bone marrow-derived stem cells (MSCs) with cartilage fragments, with or without TGF-β1
Type: cell-based, horse
Procedure: Bone marrow aspirates were obtained from the tuber coxae of 3 normal horses (3-years-old) to attain bone marrow-derived stem cells (MSCs). Aspirates were cultured in media, pre-plated for purification, and grown in monolayer culture flasks for 2-3 weeks until a confluent monolayer culture of MSCs was obtained. Confluent monolayers were expanded for another 2-3 weeks until a minimum of 26×10^6 cells were attained.
Cartilage was collected sterilely from the same horses and freeze-thawed 3 times to ensure all native cells within the cartilage were dead. Prior to the start of the experiment the cartilage was placed in liquid nitrogen and pulverized until it became a fine powder. Then the cartilage was weighed into aliquots to make 2.5% and 10% of cartilage weight to volume in media.
A 24-well, non-adherent plate contained treatment groups of 1×10^6 cells only, 1×10^6 cells with 2.5% cartilage, 1×10^6 cells with 10% cartilage, 2.5% cartilage only, and 10% cartilage only to make 5 treatment groups. The cells-only treatment group was the baseline positive control. The 2.5% and 10% cartilage fragments without cells served as the negative controls and, if necessary, for baseline values of proteoglycan and DNA content of the matrix provided. […]

TGF-β1: transforming growth factor β type 1, growth factor supplemented to media at 5 ng/ml
MSC survival and chondrogenesis: necessary
DNA content by day 14 (day 14, 5 ng/ml TGF-β1): significantly increasing
